According to publication PMC7532004, “Site-specific effects of neurosteroids on GABAA receptor activation and desensitization” (eLife, 2020):

Experiments:
[1] = target: T1, α1β3 GABAARs on intact HEK cell surfaces (Homo sapiens, UniProt P14867+P28472); experiment: [3H]muscimol binding to intact HEK cells (cell surface vs total receptors); details: 10 μM KK148; 3 nM [3H]muscimol; intact vs permeabilized HEK cells
T1 construct: inserted between the fourth and fifth residues of the mature peptide; photolabeling full-length heteropentameric GABAARs in native membranes; expressed in transfected cells
T1 sequence (P14867 28-456): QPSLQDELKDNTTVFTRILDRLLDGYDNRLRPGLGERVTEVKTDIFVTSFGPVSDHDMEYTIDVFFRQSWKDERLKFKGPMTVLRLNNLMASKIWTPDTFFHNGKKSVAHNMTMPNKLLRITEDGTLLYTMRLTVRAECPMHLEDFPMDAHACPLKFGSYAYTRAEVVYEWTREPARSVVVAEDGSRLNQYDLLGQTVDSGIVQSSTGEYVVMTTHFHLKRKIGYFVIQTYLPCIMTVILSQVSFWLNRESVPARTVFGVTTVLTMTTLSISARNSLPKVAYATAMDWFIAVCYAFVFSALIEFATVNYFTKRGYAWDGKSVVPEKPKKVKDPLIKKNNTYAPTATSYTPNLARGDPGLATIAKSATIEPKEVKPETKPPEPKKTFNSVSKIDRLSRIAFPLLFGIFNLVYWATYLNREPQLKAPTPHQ
T1 sequence (P28472 26-473): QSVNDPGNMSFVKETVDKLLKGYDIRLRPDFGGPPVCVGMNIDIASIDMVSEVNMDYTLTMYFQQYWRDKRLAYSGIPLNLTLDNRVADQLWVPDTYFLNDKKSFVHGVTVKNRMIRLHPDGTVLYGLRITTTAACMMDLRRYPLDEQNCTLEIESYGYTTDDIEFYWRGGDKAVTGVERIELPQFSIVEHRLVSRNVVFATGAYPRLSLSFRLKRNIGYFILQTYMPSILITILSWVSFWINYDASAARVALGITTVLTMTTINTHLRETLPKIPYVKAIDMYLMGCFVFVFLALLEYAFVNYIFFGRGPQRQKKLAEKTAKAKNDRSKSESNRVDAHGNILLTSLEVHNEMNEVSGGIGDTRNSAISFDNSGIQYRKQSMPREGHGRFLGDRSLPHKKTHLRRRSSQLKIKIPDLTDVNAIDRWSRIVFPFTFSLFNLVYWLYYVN
Experimental: HEK cells were harvested by gently washing dishes with buffer containing 10 mM sodium phosphate (pH 7.5), 150 mM sodium chloride twice. The cells were collected by centrifugation at 500 g at 4°C for 5 min, and resuspended in isotonic (10 mM sodium phosphate, 150 mM sodium chloride, pH 7.5) or hypotonic (10 mM sodium phosphate, pH 7.5) buffer to prepare two different conditions for radioligand binding to intact cells [isotonic buffer for cell surface receptors; hypotonic buffer for total receptors (cell surface receptors + intracellular receptors)]. The cells were incubated on ice for 2 hr, after which the sodium chloride concentration was adjusted to be isotonic before the radioligand binding procedure. HEK cells were aliquoted to assay tubes (20 samples/150 mm dish) in a total volume of 1 ml, and incubated with 3 nM [^3H]muscimol ±10 μM KK148 for 1 hr on ice in the dark.

[2] = target: T2, α1(N408A/Y411F)β3(Y284F) GABAAR (UniProt P28472+P62813, N434A/Y309F/Y437F); experiment: Two-electrode voltage clamp in Xenopus laevis oocytes, both intrasubunit sites mutated; format: cell-based; details: 3 μM 3β5αP, 1 mM GABA + 25 μM pentobarbital
T2 construct: expressed in transfected cells; host or cells: Xenopus laevis oocytes injected with cRNA
Experimental: (§1) The wild-type and mutant α1β3 GABAAR were expressed in oocytes from the African clawed frog (Xenopus laevis). Frogs were purchased from Xenopus 1 (Dexter, MI), and housed and cared for in a Washington University Animal Care Facility under the supervision of the Washington University Division of Comparative Medicine. Harvesting of oocytes was conducted under the Guide for the Care and Use of Laboratory Animals as adopted and promulgated by the National Institutes of Health. The animal protocol (No. 20180191) was approved by the Animal Studies Committee of Washington University in St. Louis. The oocytes were injected with a total of 12 ng cRNA. The ratio of cRNAs was 5:1 ratio (α1:β3) to minimize the expression of β3 homomeric receptors. Following injection, the oocytes were incubated in ND96 (96 mM NaCl, 2 mM KCl, 1.8 mM CaCl2, 1 mM MgCl2, 5 mM HEPES; pH 7.4) with supplements (2.5 mM Na pyruvate, 100 U/ml penicillin, 100 μg/ml streptomycin and 50 μg/ml gentamycin) at 16°C for 2 days prior to conducting electrophysiological recordings. The electrophysiological recordings were conducted at room temperature using standard two-electrode voltage clamp. The oocytes were clamped at −60 mV. The chamber (RC-1Z, Warner Instruments, Hamden, CT) was perfused with ND96 at 5–8 ml/min. […] Current traces were analyzed with Clampfit (Molecular Devices). […]

[3] = target: T3, α1(Q242L/N408A/Y411F)β3(Y284F) GABAAR (UniProt P28472+P62813, N434A/Q268L/Y309F/Y437F); experiment: Two-electrode voltage clamp in Xenopus laevis oocytes, all three sites mutated; format: cell-based; details: 3 μM 3β5αP, 1 mM GABA + 25 μM pentobarbital
T3 construct: expressed in transfected cells; host or cells: Xenopus laevis oocytes injected with cRNA
Experimental: as §1

[4] = target: α1(Q242L/N408A/Y411F)β3 GABAAR (UniProt P28472+P62813, N434A/Q268L/Y437F); experiment: Two-electrode voltage clamp in Xenopus laevis oocytes, intersubunit + α1 intrasubunit mutant; format: cell-based; parameters: expressed in transfected cells; host or cells: Xenopus laevis oocytes injected with cRNA; details: 3 μM 3α5αP, 1 mM GABA + 40 μM pentobarbital
Experimental: as §1

C#CCCO[C@H]1CC[C@H]2[C@@H]3CC[C@H]4CC5(CC[C@]4(C)[C@H]3CC[C@]12C)N=N5 [KK148]
Enhancement of specific [3H]muscimol binding in intact cells [1]: enhanced

CC(=O)[C@H]1CC[C@H]2[C@@H]3CC[C@H]4C[C@@H](O)CC[C@]4(C)[C@H]3CC[C@]12C [3β5αP, epi-allopregnanolone]
Enhancement of desensitization compared with single intrasubunit site mutants [2]: less NS-enhancement of desensitization | Desensitizing effect with combined mutations of all three binding sites [3]: not completely eliminated

CC(=O)[C@H]1CC[C@H]2[C@@H]3CC[C@H]4C[C@H](O)CC[C@]4(C)[C@H]3CC[C@]12C [3α5αP, allopregnanolone]
Effect on steady-state current [4]: significantly inhibited
